In patent US20240376051A1, “CRYSTALLINE FORM OF PYRROLE AMIDE COMPOUND, PREPARATION METHOD THEREFOR AND USE THEREOF” (SUNSHINE LAKE PHARMA CO., LTD., priority 2021, published 2024):
Like-named read-outs stand apart in the source and are kept apart here.

Legend:
[1] = Hygroscopicity experiment (dynamic moisture adsorption, DVS); type: physicochemical; details: for The hygroscopicity feature: Chinese Pharmacopoeia 2020 definition, 25°C±1°C, 80%±2% relative humidity; for Weight gain at 60% relative humidity/% / Weight gain at 80% relative humidity/% / Weight gain at 95% relative humidity/%: DVS, 25°C
Method: The hygroscopicity of the present invention was measured by a DVS INT-Std dynamic moisture and gas adsorption analyzer from Surface Measurement Systems, UK. The humidity test range: 0%-95%, air flow: 200 mL/min, temperature: 25° C., test point: every 5% increase in humidity to take a test point.
Test samples: crystalline form I prepared by referring to any method of Example 2, and amorphous form prepared by referring to Example 1.
An appropriate amount of the test sample was taken, and the hygroscopicity was tested by a dynamic moisture adsorption device. The description of the hygroscopicity feature and the definition of the hygroscopicity gain (Chinese Pharmacopoeia 2020 edition. Appendix 9103 Guidelines for drug dampness test, experimental, conditions: 25° C.±1° C. 80%±2% relative humidity) as described in Table 6 below: […]

[2] = Stability experiment: high humidity test; type: physicochemical; details: for Appearance / Total impurity %: 25°C, RH 90%±5%; for Total impurity %: HPLC
Method: (§1) Test samples: crystalline form I was prepared by referring to any method of Example 2, and amorphous form was prepared by referring to Example 1.
(§2) • (2) High humidity test: an appropriate amount of the test sample was taken into a flat weighing bottle, spread into a thin layer with a thickness of ≤5 mm. The samples were placed at 25° C. and RH for 90%±5% for 30 days. The samples were taken for testing according to the key stability inspection items on the 5th, 10th, and 30th day. The color change of the samples was observed. The purity of the samples was determined by HPLC.

[3] = Stability experiment: high temperature test; type: physicochemical; details: for Appearance / Total impurity %: 60°C±2°C; for Total impurity %: HPLC
Method: as §1
as §2, with “The following tests of test samples were carried out: •” for “•”, “(1)” for “(2)”, “temperature” for “humidity”, “60° C.±2°” for “25°”, “C.” for “C. and RH for 90%±5%”

[4] = Pharmacokinetic experiment, oral capsule in Beagle dogs; type: in vivo; details: 5 mg/kg; for AUClast / Cmax / Tmax: male Beagle dogs
Method: The crystalline form I prepared by referring to any method of Example 2 was filled into capsules, which are used for oral administration.
8-12 kg Male Beagle dogs were divided into 2 groups, and 3 in each group. Each Beagle dog was orally administered the capsule containing the test sample at a dose of 5 mg/kg, and blood was collected at time points of 0.25, 0.5, 1.0, 2.0, 4.0, 6.0, 8.0 and 24 hours. Standard curve was plotted based on concentrations of the samples in a suitable range, the concentration of the test sample in the plasma sample was measured and quantified by AB SCIEX API4000 LC-MS/MS at MRM mode. Pharmacokinetic parameters were calculated according to drug concentration-time curve using a noncompartmental method by WinNonLin 6.3 software.
A pharmacokinetic experiment of the amorphous form prepared with reference to Example 1 was carried out according to the above method, and the results are shown in Table 1.

[5] = Stability experiment: light test; type: physicochemical; details: for Appearance / Total impurity %: 25°C, white light 4990 lux; for Total impurity %: HPLC
Method: as §1
• (3) Light test: an appropriate amount of the test sample was taken into a flat weighing bottle, spread into a thin layer with a thickness of ≤5 mm. The samples were placed in a light box (with a UV lamp) and placed under the conditions of 25° C., white light 4990 lux, and UV 1.4 W·h/m^2 for 30 days. The samples were taken for testing on the 5th, 10th, and 30th day. The color change of the samples was observed. The purity of the samples was determined by HPLC.

[6] = Stability experiment: accelerated test; type: physicochemical; details: for Total impurity % / Appearance: 40±2°C/75%±5% RH; for Total impurity %: HPLC; for Appearance: PE package plus aluminum foil
Method: as §1
• (4) Accelerated test: an appropriate amount of crystalline form I test samples in a single-layer PE package plus aluminum foil packaging was stored for 6 months under the conditions of 40±2° C./75%±5% RH. Samples were taken for testing in the 1st, 2nd, 3rd and 6th month. The color change of the samples was observed. The purity of the samples was determined by HPLC.

With `Cc1c(C(=O)Nc2ccc(S(C)(=O)=O)c(F)c2)cn(CCO)c1-c1ccccc1C(F)(F)F` [Amorphous form, (S)-1-(2-hydroxyethyl)-4-methyl-N-(3-fluoro-4-(methylsulfonyl)phenyl)-5-(2-(trifluoromethyl)phenyl)-1H-pyrrole-3-carboxamide] the The hygroscopicity feature [1] was “slight hygroscopicity”, the “Weight gain at 60% relative humidity/%” value [1] was 1.401% and the “Weight gain at 80% relative humidity/%” value [1] was 1.826%. For the same compound, the “Weight gain at 95% relative humidity/%” value [1] was 2.707%, the Appearance ([2]; 0 day) was “Off-white” and the Total impurity % ([2]; 0 day) was 0.40%. For the same compound, the Appearance ([2]; 5 days) was “Off-white”, the Total impurity % ([2]; 5 days) was 0.47% and the Appearance ([2]; 10 days) was “Off-white”. For the same compound, the Total impurity % ([2]; 10 days) was 0.53%, the Appearance ([2]; 30 days) was “Off-white” and the Total impurity % ([2]; 30 days) was 0.57%. For the same compound, the Appearance ([3]; 0 day) was “Off-white”, the Total impurity % ([3]; 0 day) was 0.40% and the Appearance ([3]; 5 days) was “Off-white”. The Total impurity % ([3]; 5 days) was 0.46%, the Appearance ([3]; 10 days) was “Off-white” and the Total impurity % ([3]; 10 days) was 0.55%. For the same compound, the Appearance ([3]; 30 days) was “Off-white”, the Total impurity % ([3]; 30 days) was 1.28% and the AUClast [4] was 20900 ng·h/mL. For the same compound, the Cmax [4] was 913 ng/mL, the Tmax [4] was 3.33 h and the Appearance ([5]; UV 1.4 W·h/m^2, 0 day) was “Off-white”. It also gave a Total impurity % ([5]; UV 1.4 W·h/m^2, 0 day) of 0.40%, a Total impurity % ([5]; UV 1.4 W·h/m^2, 5 days) of 0.85% and a Total impurity % ([5]; UV 1.4 W·h/m^2, 10 days) of 1.79%. It also gave a Total impurity % ([5]; UV 1.4 W·h/m^2, 30 days) of 3.47%.
For `Cc1c(C(=O)Nc2ccc(S(C)(=O)=O)c(F)c2)cn(CCO)c1-c1ccccc1C(F)(F)F` [Crystalline form I, (S)-1-(2-hydroxyethyl)-4-methyl-N-(3-fluoro-4-(methylsulfonyl)phenyl)-5-(2-(trifluoromethyl)phenyl)-1H-pyrrole-3-carboxamide], the The hygroscopicity feature [1] was “no or almost no hygroscopicity”, the “Weight gain at 60% relative humidity/%” value [1] was 0.120% and the “Weight gain at 80% relative humidity/%” value [1] was 0.185%. For the same compound, the “Weight gain at 95% relative humidity/%” value [1] was 0.304%, the Appearance ([2]; 0 day) was “White” and the Total impurity % ([2]; 0 day) was 0.34%. For the same compound, the Appearance ([2]; 5 days) was “White”, the Total impurity % ([2]; 5 days) was 0.35% and the Appearance ([2]; 10 days) was “White”. The Total impurity % ([2]; 10 days) was 0.36%, the Appearance ([2]; 30 days) was “White” and the Total impurity % ([2]; 30 days) was 0.34%. For the same compound, the “change of appearance and purity” value ([2]; high humidity (25°C, RH 90%±5%), 30 days) was “no obvious changes”, the Appearance ([3]; 0 day) was “White” and the Total impurity % ([3]; 0 day) was 0.34%. The Appearance ([3]; 5 days) was “White”, the Total impurity % ([3]; 5 days) was 0.36% and the Appearance ([3]; 10 days) was “White”. For the same compound, the Total impurity % ([3]; 10 days) was 0.34%, the Appearance ([3]; 30 days) was “White” and the Total impurity % ([3]; 30 days) was 0.34%. The “change of appearance and purity” value ([3]; high temperature (60°C), 30 days) was “no obvious changes”, the “exposure and blood drug concentration compared with the amorphous form” value ([4]; Beagle dogs) was “higher exposure and blood drug concentration than the amorphous form” and the AUClast [4] was 42300 ng·h/mL. For the same compound, the Cmax ([4]; male, Beagle, dog, plasma, po, read-out: Cmax) was 1450 ng/mL, the Tmax ([4]; male, Beagle, dog, plasma, po, read-out: Tmax) was 4 h and the Appearance ([5]; UV 1.4 W·h/m^2, 0 day) was “White”. The Total impurity % ([5]; UV 1.4 W·h/m^2, 0 day) was 0.34%, the Appearance ([5]; UV 1.4 W·h/m^2, 5 days) was “White” and the Total impurity % ([5]; UV 1.4 W·h/m^2, 5 days) was 0.34%. The Appearance ([5]; UV 1.4 W·h/m^2, 10 days) was “White”, the Total impurity % ([5]; UV 1.4 W·h/m^2, 10 days) was 0.32% and the Appearance ([5]; UV 1.4 W·h/m^2, 30 days) was “White”. For the same compound, the Total impurity % ([5]; UV 1.4 W·h/m^2, 30 days) was 0.49%, the “change of appearance and purity” value ([5]; light, 30 days) was “no obvious changes” and the Total impurity % ([6]; 0 day) was 0.78%. The Total impurity % ([6]; 1 month) was 0.72%, the Total impurity % ([6]; 2 months) was 0.73% and the Total impurity % ([6]; 3 months) was 0.73%. For the same compound, the Total impurity % ([6]; 6 months) was 0.71%, the Appearance ([6]; 0 day) was “White” and the Appearance ([6]; 1 month) was “White”. For the same compound, the Appearance ([6]; 2 months) was “White”, the Appearance ([6]; 3 months) was “White” and the Appearance ([6]; 6 months) was “White”. The “change of appearance and purity” value ([6]; accelerated test conditions, 6 months) was “do not change significantly”.
